This passage reports GI50 and TGI results from PubChem BioAssay (NCI).

“And” between values parts separate entries of the source, which are not always exact repeats. Equal values may be shown once.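 Protocol summary: plate cells (96-well), add compound at 5 concentrations, incubate 48 h, interpolate endpoints linearly. The concentration for 50% growth inhibition is given as GI50. TGI: concentration producing complete growth inhibition.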 A value given as a limit tells only on which side of the number the result lay.

This test concerns MDA-MB-468 breast. Description: inhibition of tumour cell growth, NCI panel, 48 h.
Consider `CCOC(=O)c1cc(-c2ccc([N+](=O)[O-])cc2)n(-c2ccc(C(=O)O)c(O)c2)c1C`, for which the GI50 was 2.8 µM and the TGI was determined as 10.7 µM.

For `O=[n+]1c(CBr)c(CBr)n([O-])c2ccccc21`, the GI50 was 7.38 µM and the TGI turned out to be 20.4 µM.

`N#Cc1c(O)c2c(c(O)c1C#N)C(=O)c1ccccc1C2=O`: the GI50 was 1.63 µM and the TGI came to 6.17 µM.

For `Cc1c(Cl)cccc1Nc1ncccc1C(=O)O`, the GI50 was 84.4 µM and the TGI is > 100 µM.

`C#C[C@]1(O)CC[C@H]2[C@@H]3CC=C4c5sc(-c6cccc(O)c6)nc5CC[C@]4(C)[C@H]3CC[C@@]21C`: the GI50 was 2.56 µM and the TGI came to 6.66 µM.

Turning to `N#Cc1nc(-c2ccc(F)cc2)oc1S(=O)(=O)N1CCOCC1`, the GI50 was 1.6 µM and the TGI was 3.27 µM.

With `COc1ccc(CN2CCCC(C(=O)c3ccc(C(F)(F)F)cc3)C2)c(O)c1` (centres undefined), the GI50 was 15.7 µM and the TGI worked out at 41.6 µM.

Take `COC(=O)c1c2c(c(C)[n+]([O-])c1C)C(=O)C=CC2=O`: the GI50 was 0.946 µM and the TGI stood at 2.71 µM.

Turning to `C[C@@H]1Cc2c([nH]c3ccccc23)[C@@H](c2c(F)cc(/C=C/C(=O)O)cc2F)N1CC(C)(C)F`, the GI50 was 16.9 µM and the TGI was 53.5 µM.

Consider `Cn1c(-c2nonc2N)nc2cnccc21`, for which the GI50 is > 25 µM and the TGI was > 25 µM.

With `COc1nc2c(cc1S(=O)(=O)c1ccccc1)CCc1c-2cnn1-c1ccccc1Cl`, the GI50 was 3.7 µM and the TGI is > 100 µM.

For the molecule `O=C1c2ccccc2C(=O)c2c1ccc1[nH]c(CCl)nc21`, the GI50 is 1.94 µM and the TGI came out at 4.29 µM.

`COc1cccc(-c2nn(-c3ccccc3)cc2-c2ccnc(NCCCNS(=O)(=O)c3cccc(F)c3)c2)c1`: the GI50 was 3.49 µM and the TGI was found to be 30.4 µM.

Turning to `CC1=C(CCCOC(=O)NCCCl)C2=C(C)C3(CC3)[C@@](C)(O)C(=O)C2=C1`, the GI50 is 1.83 µM and the TGI came out at 5.08 µM.

As for `CN1CCN(Cc2ccc(NC(=O)c3cncc(C#Cc4cnc(N)c5ccccc45)c3)cc2C(F)(F)F)CC1`, the GI50 is 0.4 µM and the TGI was determined as 0.918 µM.

`COc1ccc(CNC(=O)COc2ccc(/C=N/Nc3nc4ccccc4s3)cc2)cc1`: the GI50 is 1.9 µM and the TGI turned out to be 6.09 µM.

As to `COc1cc2c(c(OC)c1OC)-c1ccc(NCc3ccccc3)c(=O)cc1[C@@H](NC(C)=O)CC2`, the GI50 is 0.319 µM and the TGI came to 9.13 µM.

On to `Cn1cc(C2=C(c3ccc(OC[C@@H](O)CO)cc3)C(=O)NC2=O)c2ccccc21`, for which the GI50 is > 25 µM and the TGI was > 25 µM.

For the molecule `ClCc1ccccc1CSc1ncnc2nc[nH]c12`, the GI50 is 48.9 µM and the TGI is > 60 µM.

`CNC(=O)c1cc(Oc2ccc3c(c2)sc2nc(-c4ccc(N)cc4)cn23)ccn1`: the GI50 was 0.304 µM and the TGI is > 100 µM.

For `O=C(NNc1nc2cc(F)c(F)cc2n2cccc12)c1cccnn1`, the GI50 was 0.408 µM and 0.204 µM; the TGI was 1.5 µM and 0.712 µM.

As to `NS(=O)(=O)c1ccc(-n2nc(-c3ccc(Br)cc3)ccc2=O)cc1`, the GI50 is > 10 µM and the TGI was > 10 µM.

`CC[n+]1ccc2c(c1)C(=O)c1nccc3c1c-2nc1ccccc13`: the GI50 was 0.462 µM and the TGI was 1.18 µM.

On to `CN=C1NC(=O)/C(=C/c2ccc3ncccc3c2)S1`, for which the GI50 was 3.26 µM and the TGI worked out at 21.6 µM.

With `O=C(O)CCCc1ccc(N(CCCl)CCCl)cc1`, the GI50 was 23.1 µM and the TGI was found to be 99.2 µM.

Regarding `CCN1CCN(c2nc(NCCNc3ccnc4cc(Cl)ccc34)c3ccccc3n2)CC1`, the GI50 is 0.752 µM and the TGI came out at 2.34 µM.

Take `CS(=O)c1nccc(-c2c(-c3ccc(F)c(OCCc4ccc(F)cc4)c3)nc3sccn23)n1` (centres undefined): the GI50 was 1.73 µM and the TGI was determined as 3.76 µM.

Take `Fc1ccc(-c2nn(-c3ccccc3)cc2-c2nc3ccccc3o2)cc1`: the GI50 was 0.249 µM and the TGI was 0.877 µM.

With `OC(c1cccc(C(F)(F)F)c1)c1cnccc1NC1CCCCCC1` (centres undefined), the GI50 was 1.22 µM and the TGI was determined as 2.76 µM.

On to `COc1ccccc1NC(=O)c1ccc(/C=C/C(=O)c2nccn2C)cc1`, for which the GI50 is 0.383 µM and the TGI was 0.848 µM.

Turning to `CC1=C2[C@@H](CC1)[C@]1(C)O[C@@](C(C)C)(C[C@H]1OC(=O)[C@H](C)O)[C@H]2OC(=O)/C=C/c1ccccc1`, the GI50 is 12.6 µM and the TGI worked out at 28.3 µM.

`O=C(Cc1ccc(/C=C/C(=O)c2ncc[nH]2)cc1)Nc1ccc(Cl)cc1`: the GI50 is 1.68 µM and the TGI was 6.2 µM.
